Reference: PubChem BioAssay (NCI)
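Exposure lasted 48 hours, with cells grown in 96-well plates and compounds tested at five concentrations. Definition used: TGI = concentration required for complete inhibition of growth.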

Experiments:
Assay in all cases: growth of human tumour cells (NCI), 48 h
SNB-78 CNS = test system: SNB-78 CNS
SK-MEL-2 melanoma = test system: SK-MEL-2 melanoma
DMS 114 small cell lung = test system: DMS 114 small cell lung
DLD-1 colon = test system: DLD-1 colon
MOLT-4 leukemia = test system: MOLT-4 leukemia
K-562 leukemia = test system: K-562 leukemia
RPMI-8226 leukemia = test system: RPMI-8226 leukemia
A498 renal = test system: A498 renal
LXFL 529 NSCLC = test system: LXFL 529 NSCLC
HL-60(TB) leukemia = test system: HL-60(TB) leukemia
SK-MEL-28 melanoma = test system: SK-MEL-28 melanoma
M19-MEL melanoma = test system: M19-MEL melanoma
SF-295 CNS = test system: SF-295 CNS
786-0 renal = test system: 786-0 renal
CAKI-1 renal = test system: CAKI-1 renal
HCC-2998 colon = test system: HCC-2998 colon
SNB-75 CNS = test system: SNB-75 CNS
SF-268 CNS = test system: SF-268 CNS
UACC-257 melanoma = test system: UACC-257 melanoma
UACC-62 melanoma = test system: UACC-62 melanoma
SNB-19 CNS = test system: SNB-19 CNS
OVCAR-4 ovarian = test system: OVCAR-4 ovarian
XF 498 CNS = test system: XF 498 CNS
LOX IMVI melanoma = test system: LOX IMVI melanoma
NCI-H23 lung = test system: NCI-H23 lung
CCRF-CEM leukemia = test system: CCRF-CEM leukemia
HOP-62 NSCLC = test system: HOP-62 NSCLC
HT29 colon = test system: HT29 colon
SK-MEL-5 melanoma = test system: SK-MEL-5 melanoma
HCT-116 colon = test system: HCT-116 colon
SW-620 colon = test system: SW-620 colon
MALME-3M melanoma = test system: MALME-3M melanoma
A549 NSCLC = test system: A549 NSCLC
EKVX NSCLC = test system: EKVX NSCLC
SN12C renal = test system: SN12C renal
TK-10 renal = test system: TK-10 renal
COLO 205 colon = test system: COLO 205 colon
OVCAR-3 ovarian = test system: OVCAR-3 ovarian
M14 melanoma = test system: M14 melanoma
KM12 colon = test system: KM12 colon
SR leukemia = test system: SR leukemia
SF-539 CNS = test system: SF-539 CNS
SK-OV-3 ovarian = test system: SK-OV-3 ovarian
HOP-92 NSCLC = test system: HOP-92 NSCLC
NCI-H522 lung = test system: NCI-H522 lung
NCI-H226 lung = test system: NCI-H226 lung
OVCAR-8 ovarian = test system: OVCAR-8 ovarian
DMS 273 small cell lung = test system: DMS 273 small cell lung
UO-31 renal = test system: UO-31 renal
IGROV1 ovarian = test system: IGROV1 ovarian
HCT-15 colon = test system: HCT-15 colon
ACHN renal = test system: ACHN renal
OVCAR-5 ovarian = test system: OVCAR-5 ovarian
U251 CNS = test system: U251 CNS
RXF 393 renal = test system: RXF 393 renal
NCI-H460 lung = test system: NCI-H460 lung
KM20L2 colon = test system: KM20L2 colon

O=S1(=O)OCCOS(=O)(=O)C1(I)I
TGI (SNB-78 CNS): 86.4 µM | TGI (SK-MEL-2 melanoma): 39.5 µM | TGI (DMS 114 small cell lung): 43.9 µM | TGI (DLD-1 colon): 35.8 µM | TGI (MOLT-4 leukemia): 56.9 µM | TGI (K-562 leukemia): 74.6 µM | TGI (RPMI-8226 leukemia): 36.8 µM | TGI (A498 renal): 30.3 µM | TGI (LXFL 529 NSCLC): 27.3 µM | TGI (HL-60(TB) leukemia): 68.3 µM | TGI (SK-MEL-28 melanoma): 55.2 µM | TGI (M19-MEL melanoma): 53.8 µM | TGI (SF-295 CNS): 90.8 µM | TGI (786-0 renal): 35 µM | TGI (CAKI-1 renal): 35.7 µM | TGI (HCC-2998 colon): 35.2 µM | TGI (SNB-75 CNS): 48.7 µM | TGI (SF-268 CNS): 74.7 µM | TGI (UACC-257 melanoma): 46.3 µM | TGI (UACC-62 melanoma): 30.3 µM | TGI (SNB-19 CNS): 55.3 µM | TGI (OVCAR-4 ovarian): 48.9 µM | TGI (XF 498 CNS): 37.5 µM | TGI (LOX IMVI melanoma): 30.5 µM | TGI (NCI-H23 lung): 27.9 µM | TGI (CCRF-CEM leukemia): 35.6 µM | TGI (HOP-62 NSCLC): 38.9 µM | TGI (HT29 colon): 69.4 µM | TGI (SK-MEL-5 melanoma): 30 µM | TGI (HCT-116 colon): 29.9 µM | TGI (SW-620 colon): 39.3 µM | TGI (MALME-3M melanoma): 37.6 µM | TGI (A549 NSCLC): 71.1 µM | TGI (EKVX NSCLC): 59 µM | TGI (SN12C renal): 38.2 µM | TGI (TK-10 renal): 70.3 µM | TGI (COLO 205 colon): 37.8 µM | TGI (OVCAR-3 ovarian): 73.8 µM | TGI (M14 melanoma): 50.7 µM | TGI (KM12 colon): 40.8 µM | TGI (SR leukemia): 49.1 µM | TGI (SF-539 CNS): 40.1 µM | TGI (SK-OV-3 ovarian): 47.2 µM | TGI (HOP-92 NSCLC): 29.8 µM | TGI (NCI-H522 lung): 45.2 µM | TGI (NCI-H226 lung): 29.7 µM | TGI (OVCAR-8 ovarian): 59.5 µM | TGI (DMS 273 small cell lung): 47.3 µM | TGI (UO-31 renal): 33.3 µM | TGI (IGROV1 ovarian): 63.8 µM

N#CNC1=NC(Cc2ccccc2)C(=O)N1CCc1c[nH]c2ccccc12 (stereo unspecified)
TGI (HCT-15 colon): > 100 µM | TGI (SNB-78 CNS): 63 µM | TGI (DMS 114 small cell lung): 91.9 µM | TGI (DLD-1 colon): > 100 µM | TGI (MOLT-4 leukemia): 58.3 µM | TGI (K-562 leukemia): > 100 µM | TGI (RPMI-8226 leukemia): > 100 µM | TGI (LXFL 529 NSCLC): > 100 µM | TGI (HL-60(TB) leukemia): 60.5 µM | TGI (SK-MEL-28 melanoma): 67.8 µM | TGI (M19-MEL melanoma): 92.4 µM | TGI (SF-295 CNS): > 100 µM | TGI (786-0 renal): 42.1 µM | TGI (HCC-2998 colon): 48.6 µM | TGI (SNB-75 CNS): 33.2 µM | TGI (SF-268 CNS): 83.5 µM | TGI (UACC-257 melanoma): > 100 µM | TGI (UACC-62 melanoma): 86 µM | TGI (SNB-19 CNS): > 100 µM | TGI (OVCAR-4 ovarian): > 100 µM | TGI (XF 498 CNS): 68.4 µM | TGI (LOX IMVI melanoma): > 100 µM | TGI (NCI-H23 lung): > 100 µM | TGI (CCRF-CEM leukemia): 74.6 µM | TGI (HOP-62 NSCLC): 92.1 µM | TGI (HT29 colon): > 100 µM | TGI (SK-MEL-5 melanoma): 41.7 µM | TGI (HCT-116 colon): 50.4 µM | TGI (SW-620 colon): > 100 µM | TGI (A549 NSCLC): > 100 µM | TGI (EKVX NSCLC): 81.5 µM | TGI (SN12C renal): > 100 µM | TGI (TK-10 renal): 89.9 µM | TGI (COLO 205 colon): 43.6 µM | TGI (OVCAR-3 ovarian): > 100 µM | TGI (M14 melanoma): > 100 µM | TGI (KM12 colon): > 100 µM | TGI (SR leukemia): > 100 µM | TGI (SF-539 CNS): 83.2 µM | TGI (SK-OV-3 ovarian): 80.2 µM | TGI (NCI-H226 lung): > 100 µM | TGI (OVCAR-8 ovarian): > 100 µM | TGI (DMS 273 small cell lung): > 100 µM | TGI (UO-31 renal): 64.5 µM | TGI (IGROV1 ovarian): > 100 µM

FC(F)(F)c1cccc(C=NC23CC4CC(CC(C4)C2)C3)c1
TGI (HCT-15 colon): > 100 µM | TGI (SNB-78 CNS): > 100 µM | TGI (ACHN renal): > 100 µM | TGI (SK-MEL-2 melanoma): > 100 µM | TGI (DMS 114 small cell lung): > 100 µM | TGI (MOLT-4 leukemia): > 100 µM | TGI (K-562 leukemia): > 100 µM | TGI (RPMI-8226 leukemia): > 100 µM | TGI (A498 renal): > 100 µM | TGI (HL-60(TB) leukemia): > 100 µM | TGI (SK-MEL-28 melanoma): > 100 µM | TGI (OVCAR-5 ovarian): > 100 µM | TGI (M19-MEL melanoma): > 100 µM | TGI (SF-295 CNS): > 100 µM | TGI (786-0 renal): > 100 µM | TGI (U251 CNS): > 100 µM | TGI (CAKI-1 renal): > 100 µM | TGI (HCC-2998 colon): > 100 µM | TGI (SNB-75 CNS): > 100 µM | TGI (SF-268 CNS): > 100 µM | TGI (UACC-257 melanoma): > 100 µM | TGI (SNB-19 CNS): > 100 µM | TGI (OVCAR-4 ovarian): > 100 µM | TGI (XF 498 CNS): > 100 µM | TGI (LOX IMVI melanoma): > 100 µM | TGI (NCI-H23 lung): > 100 µM | TGI (RXF 393 renal): > 100 µM | TGI (HOP-62 NSCLC): > 100 µM | TGI (NCI-H460 lung): > 100 µM | TGI (HT29 colon): > 100 µM | TGI (SK-MEL-5 melanoma): > 100 µM | TGI (HCT-116 colon): > 100 µM | TGI (SW-620 colon): > 100 µM | TGI (MALME-3M melanoma): > 100 µM | TGI (A549 NSCLC): > 100 µM | TGI (EKVX NSCLC): > 100 µM | TGI (SN12C renal): > 100 µM | TGI (TK-10 renal): > 100 µM | TGI (COLO 205 colon): > 100 µM | TGI (KM20L2 colon): > 100 µM | TGI (OVCAR-3 ovarian): > 100 µM | TGI (M14 melanoma): > 100 µM | TGI (KM12 colon): > 100 µM | TGI (SR leukemia): > 100 µM | TGI (SF-539 CNS): > 100 µM | TGI (SK-OV-3 ovarian): > 100 µM | TGI (NCI-H226 lung): > 100 µM | TGI (OVCAR-8 ovarian): > 100 µM | TGI (DMS 273 small cell lung): > 100 µM | TGI (UO-31 renal): > 100 µM | TGI (IGROV1 ovarian): > 100 µM
